# Assay results from ChEMBL document CHEMBL1137798, “Evaluation of natural products as inhibitors of human immunodeficiency virus type 1 (HIV-1) reverse transcriptase” (J Nat Prod, 1991).
# Counter-ions that a name gives are not always drawn.
# Molecular target: Human immunodeficiency virus type 1 reverse transcriptase (Human immunodeficiency virus 1, UniProt Q72547)
# Details: read-out: IC50 (converted)
row,Structure (SMILES),IC50 [µM]
1,O=c1ccc2cc(O[C@@H]3O[C@H](CO)[C@@H](O)[C@H](O)[C@H]3O)c(O)cc2o1 [ESCULIN],> 588
2,C/C=C/C=C1\C=Cc2c(C(=O)OC)coc(=O)c21 [FULVOPLUMIERIN],184
3,COc1cc(O)c2c(=O)cc(-c3ccc(O)cc3)oc2c1 [GENKWANIN],> 704
4,CC(C)=CCC[C@](C)(O[C@@H]1O[C@H](CO[C@@H]2O[C@H](CO)[C@@H](O)[C@H](O)[C@H]2O)[C@@H](O)[C@H](O)[C@H]1O)[C@H]1CC[C@]2(C)[C@@H]1[C@H](O)C[C@@H]1[C@@]3(C)CC[C@H](O[C@@H]4O[C@H](CO)[C@@H](O)[C@H](O)[C@H]4O[C@@H]4O[C@H](CO)[C@@H](O)[C@H](O)[C@H]4O)C(C)(C)[C@@H]3CC[C@]12C [GINSENOSIDE RB1],> 180
5,CC(C)=CCC[C@](C)(O[C@@H]1O[C@H](CO)[C@@H](O)[C@H](O)[C@H]1O)[C@H]1CC[C@]2(C)[C@@H]1[C@H](O)C[C@@H]1[C@@]3(C)CC[C@H](O)C(C)(C)[C@@H]3[C@@H](O[C@@H]3O[C@H](CO)[C@@H](O)[C@H](O)[C@H]3O[C@@H]3O[C@@H](C)[C@H](O)[C@@H](O)[C@H]3O)C[C@]12C [GINSENOSIDE RE],> 211
6,COC(=O)C[C@](O)(CCC(C)(C)O)C(=O)O[C@@H]1C(OC)=C[C@]23CCCN2CCc2cc4c(cc2[C@H]13)OCO4 [HARRINGTONINE],> 376
7,COc1ccc2cc1Oc1ccc(cc1)C[C@H]1c3cc(c(OC)cc3CCN1C)Oc1c(OC)c(OC)c(OC)c3c1[C@H](C2)N(C)CC3 [HERNANDEZINE],> 306
8,COc1ccc2c(c1OC)C(=O)O[C@@H]2[C@H]1c2cc3c(cc2CCN1C)OCO3 [HYDRASTINE],> 522
9,CC(C)[C@](O)(C(=O)OCC1=CC[N+]2([O-])CC[C@@H](O)[C@@H]12)[C@H](C)O (some centres undefined) [INDICINE N-OXIDE],> 634
10,Cn1cncc1C[C@H]1COC(=O)[C@@H]1[C@@H](O)c1ccccc1 [ISOPILOSINE],> 698
11,COC(=O)[C@H]1[C@H]2C[C@@H]3c4[nH]c5ccccc5c4CCN3C[C@H]2C[C@@H](O)[C@@H]1OC(=O)c1cc(OC)c(OC)c(OC)c1 [ISORAUNESCINE],> 354
12,COC(=O)CC1(O)C=CC(=O)C=C1 [JACARANONE],> 1100
13,COc1cc2c(cc1O)CC[n+]1cc3c(OC)c(OC)ccc3cc1-2 [JATRORRHIZINE CHLORIDE],190
14,O=c1c(O)c(-c2ccc(O)cc2)oc2cc(O)cc(O)c12 [KAEMPFEROL],< 524
15,COc1c2occc2c(OC)c2c(=O)cc(C)oc12 [KHELLIN],> 769
16,C/C=C(/C)C(=O)O[C@H]1CCN2CC=C(COC(=O)[C@](O)([C@H](C)OC)C(C)(C)O)[C@H]12 [LASIOCARPINE],> 486
17,O=C1CCC[C@H]2[C@@H]3CCCN4CCC[C@H](CN12)[C@@H]34 [LEONTINE],> 805
18,CC1(C)O[C@H]2CC(=O)OC[C@]23[C@H]2CC[C@@]4(C)[C@H](c5ccoc5)OC(=O)[C@H]5O[C@]54[C@]2(C)C(=O)C[C@@H]13 [LIMONIN],> 425
19,COc1cc([C@H]2OC[C@H]3[C@@H]2CO[C@@H]3c2cc(OC)c(O[C@@H]3O[C@H](CO)[C@@H](O)[C@H](O)[C@H]3O)c(OC)c2)cc(OC)c1O[C@@H]1O[C@H](CO)[C@@H](O)[C@H](O)[C@H]1O [LIRIODENDRIN],> 269
20,C/C=C1/CN2[C@H]3C[C@@H]1[C@@H](CO)[C@@H]2Cc1c3[nH]c2ccc(OC)cc12 [LOCHNERINE],> 616

row,Structure (SMILES),IC50 [µM]
1,COc1cc2cc(c1Cl)N(C)C(=O)C[C@H](OC(=O)[C@H](C)N(C)C(C)=O)[C@]1(C)O[C@H]1[C@H](C)[C@@H]1C[C@@](O)(NC(=O)O1)[C@H](OC)/C=C/C=C(\C)C2 [MAYTANSINE],> 289
2,COc1c(O)c2c3c(nccc3c1OC)C(C)(C)c1cc(O)ccc1-2 [MELOSMINE],> 593
3,C[C@H]1C(=O)O[C@@H]2CCN3CC=C(COC(=O)[C@](C)(O)[C@]1(C)O)[C@H]23 [MONOCROTALINE],> 615
4,COc1ccc(C(=O)Cc2c(CCN(C)C)cc3c(c2OC)OCO3)c(C(=O)O)c1OC [NARCEINE],> 449
5,COc1c([N+](=O)[O-])c2c(c3c1c(=O)c1ccccc1n3C)C=CC(C)(C)O2 [NITROACRONYCINE],> 546
6,CC(=O)O[C@H]1CC(=O)OC(C)(C)[C@@H]2CC(=O)[C@]3(C)[C@H](CC[C@@]4(C)[C@@H](c5ccoc5)OC(=O)[C@H]5O[C@]543)[C@@]12C [NOMILIN],> 389
7,COC(=O)C[C@](O)(CCCC(C)(C)O)C(=O)O[C@@H]1C(OC)=C[C@]23CCCN2CCc2cc4c(cc2[C@H]13)OCO4 [OMACETAXINE MEPESUCCINATE],> 367
8,C1CN[C@@H]2[C@@H](C1)[C@@H]1CC2([C@H]2CCC[C@H](C3CC[C@@H]4N[C@H]3N3CCC[C@H]5C[C@@H]6C[C@]4(CN4CCCC[C@H]64)[C@@H]53)N2)CN2CCCC[C@H]12 (some centres undefined) [ORMOSININE],> 324
9,C[C@@H]1O[C@@H](O[C@H]2C[C@@H](O)[C@]3(CO)[C@H]4[C@H](O)C[C@]5(C)[C@@H](C6=CC(=O)OC6)CC[C@]5(O)[C@@H]4CC[C@]3(O)C2)[C@H](O)[C@H](O)[C@H]1O [OUABAIN],> 342
10,CC(=O)O[C@H]1C(=O)[C@@]2(C)[C@H]([C@H](OC(=O)c3ccccc3)[C@]3(O)C[C@H](OC(=O)[C@H](O)[C@@H](NC(=O)c4ccccc4)c4ccccc4)C(C)=C1C3(C)C)[C@]1(OC(C)=O)CO[C@@H]1C[C@@H]2O [PACLITAXEL],> 234
11,C1CCN2C[C@]34C[C@H](C[C@@H]5CCCN([C@@H]6CCC[C@@H]3N6)[C@H]54)[C@H]2C1 [PANAMINE DIPERCHLORATE],> 387
12,C1CCN2C[C@]34C[C@H](C[C@@H]5CCCN([C@@H]6CCC[C@@H]3N6)[C@H]54)[C@H]2C1 [PANAMINE],> 634
13,COc1ccc(Cc2nccc3cc(OC)c(OC)cc23)cc1OC [PAPAVERINE],< 589
14,CC(=O)O[C@@H]1[C@H]2[C@H]3C[C@H]4C5=Nc6ccccc6[C@]51C[C@@H]2N4[C@H](C)C3C=O (some centres undefined) [PERAKINE],> 571
15,C=C1c2cc3[nH]ccc3cc2CN2CC[C@@H]1/C(=C\C)C2 [PERICALLINE],> 757
16,C/C=C1/C=[N+]2[C@H]3C[C@H]1[C@H](C(=O)OC)[C@@H]2Cc1c3[nH]c2ccc(O)cc12 [PERICYCLIVINE],> 593
17,C/C=C1/CN(C=O)[C@H]2Cc3c([nH]c4ccccc34)C(=O)C[C@@H]1[C@@H]2C(=O)OC [PERIFORMYLINE],> 546
18,C/C=C1/CN[C@H]2Cc3c([nH]c4ccccc34)C(=O)C[C@@H]1[C@@H]2C(=O)OC [PERIVINE],> 591
19,CNC[C@H](O)c1cccc(O)c1 [PHENYLEPHRINE],> 1200
20,CC(=O)O[C@@H]1[C@@H](O)[C@H](O[C@H]2[C@H](OC(=O)[C@H]3CC[C@@H]4[C@H](C3)O[C@@]3(C[C@H](OC(=O)/C=C/c5ccccc5)[C@H](C)CO3)[C@]43CO3)O[C@H](C)[C@@H](O)[C@@H]2OC(C)=O)O[C@H](C)[C@H]1O [PHYLLANTHOSIDE],> 248

row,Structure (SMILES),IC50 [µM]
1,C=C(C)[C@@H]1[C@H]2OC(=O)[C@@H]1[C@]1(O)C[C@H]3OC34C(=O)O[C@H]2[C@@]41C.CC(C)(O)[C@@H]1[C@H]2OC(=O)[C@@H]1[C@]1(O)C[C@H]3OC34C(=O)O[C@H]2[C@@]41C (some centres undefined) [PICROTOXIN],> 332
2,C/C=C1/C(=O)O[C@]23C=C[C@@H]4C(C(=O)OC)=CO[C@H](O[C@@H]12)[C@@H]43 [PLUMERICIN],> 689
3,COC(=O)C1=CO[C@@H](O[C@@H]2O[C@H](CO)[C@@H](O)[C@H](O)[C@H]2O)[C@H]2[C@@H]1C=C[C@@]21C=C([C@H](C)O)C(=O)O1 [PLUMIERIDE],> 425
4,CC(C)(O)CC[C@@H](O)[C@](C)(O)[C@H]1CC[C@@]2(O)C3=CC(=O)[C@]4(O)C[C@@H](O)[C@@H](O)C[C@]4(C)[C@H]3CC[C@]12C [POLYPODIN],> 403
5,CC1(C)CC[C@]2(CO)[C@H](O)C[C@]3(C)C(=CC[C@@H]4[C@@]5(C)CC[C@H](O)C(C)(C)[C@@H]5CC[C@]43C)[C@@H]2C1 [PRIMULAGENIN],> 436
6,O=c1c(O)c(-c2ccc(O)c(O)c2)oc2cc(O)cc(O)c12 [QUERCETIN],< 662
7,C=C[C@H]1C[N@@]2CC[C@H]1C[C@@H]2[C@@H](O)c1ccnc2ccc(OC)cc12 [QUINIDINE SULFATE],> 511
8,COC(=O)C1=CO[C@H](C)[C@@H]2CN3CCc4c([nH]c5ccccc45)[C@@H]3C[C@H]12 [RAUNITICINE],> 567
9,COC(=O)C1=CO[C@H](C)[C@@H]2CN3CCc4c([nH]c5cc(OC)ccc45)[C@@H]3C[C@H]12 [RAUNITIDINE],> 523
10,C/C=C1/C[C@@H](C)[C@](O)(CO)C(=O)OCC2=CCN3CC[C@@H](OC1=O)[C@@H]23 [RETRORSINE],> 569
11,C=C(C)[C@H]1Cc2c(ccc3c2O[C@@H]2COc4cc(OC)c(OC)cc4[C@]2(O)C3=O)O1 [ROTENOLONE],> 487
12,C=C(C)[C@H]1Cc2c(ccc3c2O[C@@H]2COc4cc(OC)c(OC)cc4[C@@H]2C3=O)O1 [ROTENONE],> 507
13,C[n+]1cc2c3c(ccc2c2ccc4cc5c(cc4c21)OCO5)OCO3 [SANGUINARINE NITRATE],< 380
14,C/C=C1/CN2[C@H]3C[C@H]1[C@@H](CO)[C@@H]2Cc1c3[nH]c2ccc(O)cc12 [SARPAGINE],> 644
15,O=C1C[C@]23C=CCN4CC[C@H]5c6cc7c(cc6N1[C@@]5(CC2)[C@@H]43)OCO7 [SCHIZOZYGINE],> 595
16,CN1[C@@H]2C[C@@H](OC(=O)[C@H](CO)c3ccccc3)C[C@H]1[C@@H]1O[C@@H]12 [SCOPOLAMINE HYDROBROMIDE],> 456
17,C/C=C1/C[C@@H](C)[C@@](C)(O)C(=O)OCC2=CCN3CC[C@@H](OC1=O)[C@@H]23 [SENECIONINE],> 596
18,C=C1C/C(=C/C)C(=O)O[C@@H]2CCN3CC=C(COC(=O)[C@]1(C)O)[C@H]23 [SENECIPHYLLINE],> 600
19,CC(=O)N[C@H]1[C@@H](O[C@H]2[C@H](O)[C@@H](O)[C@H](O[C@H]3[C@H](CS(=O)(=O)O)[C@@H](OS(=O)(=O)O)[C@@H](O[C@H]4[C@H](O)[C@@H](OS(=O)(=O)O)C(O)O[C@H]4C(=O)O)O[C@@H]3O)O[C@@H]2C(=O)O)O[C@H](COS(=O)(=O)O)[C@@H](O)[C@@H]1O (some centres undefined) [SODIUM HEPARIN],> 192
